Results from PubChem BioAssay AID2742 (NMMLSC, 2010).
Several values for one entry are separate records, joined by “and”; a condition that tells them apart may be missing. Equal entries are not always repeated. Activity calls are given as the source filed them.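 The calls were made as follows: active = fitted half-maximal concentration for changing background-corrected GFP signal at or below a set limit; inactive = the rest.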

How the values were obtained:
[1] = system: S. cerevisiae MEP2-GFP strain, flow cytometry fluorescence, 3 h; assay: modulators of MEP2-GFP levels in yeast, dose response, S. cerevisiae, flow cytometry GFP, MLPCN hits (AID 2742);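 as to EC50: curve fit on GFP signal minus compound signal in parental s288c strain lacking GFP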;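 as to GFP fluorescence (kMESF), higher = increase: GFP tag reports level of MEP2 protein as a downstream target of TOR signalling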
[2] = as above; settings: S. cerevisiae MEP2-GFP strain, flow cytometry fluorescence, 3 h; at 33 µM (top of the series)

| SMILES | EC50 [1] | GFP fluorescence (kMESF), higher = increase [2] |
| --- | --- | --- |
| O=C1NC(=O)N(Cc2ccc(F)cc2)C(=O)/C1=C/c1cccs1 | 3010 nM |  |
| CNC(CC(=O)c1ccc([N+](=O)[O-])cc1)C(Cl)(Cl)Cl (stereo unspecified) | 2280 nM |  |
| CCOC(=O)COc1ccc2ccccc2c1/C=C/[N+](=O)[O-] | 12700 nM |  |
| CC1(C)C[C@H]2C=C(C=O)[C@]3(C=O)C[C@]3(C)[C@H]2C1 | 1260 nM |  |
| Cc1ccc(/C=C/C(=O)c2ccccc(=O)c2O)c(C)c1 | 13700 nM |  |
| CCCCCCCCn1sccc1=O | 1230 nM |  |
| O=C1NC(=O)C(=Cc2ccc(-c3ccc(Cl)cc3)o2)C(=O)N1 | 1380 nM |  |
| CNc1nc(N)c([N+](=O)[O-])c(Nc2cccc(F)c2)n1 | 6850 nM |  |
| Nc1ccc(Br)c2c1C(=O)c1ccccc1C2=O | 1040 nM |  |
| O=C(Oc1ccnc2cc(Cl)ccc12)N1CCCCCC1 | 3860 nM |  |
| O=c1c2cc(Br)ccc2nc(-c2ccc([N+](=O)[O-])cc2)n1O |  | 3.87 kMESF (inactive) |
| CN(C)NC(=S)Nc1ccc(S(=O)(=O)N2CCCCC2)cc1 |  | 1.92 kMESF (inactive) |
| Cc1ccccc1N=Nc1ccc(O)c2ncccc12 |  | 3.51 kMESF (inactive) |
| COC(=O)CCC(=O)OC1(C)C(=O)C2=COC(c3ccc(OC)cc3)=CC2=C(Br)C1=O (stereo unspecified) |  | 0.26 kMESF (inactive) |
| COc1cc(NC(=O)c2ccccc2[N+](=O)[O-])ccc1NC(=O)c1cc2ccccc2o1 |  | 2.3 kMESF (inactive) |
| O=C1NC(=S)NC(=O)C1=Cc1ccc2c(c1)CCN2CCCCl |  | 4.18 kMESF (inactive) |
| CCC(=O)Oc1oc(-c2ccccc2)nc1C=Nc1ccccc1OC |  | 2.69 kMESF (inactive) |
| Oc1cc(-c2ccc(N3CCCCC3)nc2)cc2cccnc12 |  | 3.04 kMESF (inactive) |
| C=CCN1C(=O)/C(=C/c2cccs2)C(=O)NC1=S |  | 3.81 kMESF (inactive) |
| CCCOc1ccc(C(=O)NNC(=S)NC(=O)c2ccccc2)cc1 |  | 4.61 kMESF (inactive) |
| COc1cc(N=c2ssnc2Cl)c(OC)cc1Cl |  | 6.31 kMESF (inactive) and 6.98 kMESF (inactive) |

| SMILES | EC50 [1] | GFP fluorescence (kMESF), higher = increase [2] |
| --- | --- | --- |
| Oc1ccc(CNc2ccccc2)c2cccnc12 |  | 3.28 kMESF (inactive) |
| C=CCn1c(C)c(/C=C/c2cc[n+](C)cc2)c2ccccc21 |  | 5.92 kMESF (inactive) |
| Cc1ccc2nc(Cl)c3nnnn3c2c1 |  | 4.36 kMESF (inactive) |
| Cc1cc2ccccn2c1C(=O)c1ccc([N+](=O)[O-])o1 |  | -12.4 kMESF (inactive) |
| CSc1nnc2c3cc(F)ccc3n(C)c2n1 |  | 2.36 kMESF (inactive) |
| O=C(O)/C=C/C(=O)c1ccc2c(c1)CCc1ccccc1-2 |  | 4.6 kMESF (inactive) |
| [O-][n+]1cccc2c(Br)cc(Br)c(O)c21 |  | 5.76 kMESF (inactive) |
| CC(=O)NN1C(=O)/C(=C/c2ccc(Br)o2)SC1=S |  | -0.17 kMESF (inactive) |
| COc1ccc(N=Nc2ccc(O)c3ncccc23)cc1 |  | 4.94 kMESF (inactive) |
| Cc1c(Cc2ccccc2)c(NCCN(C)C)n2c(nc3ccccc32)c1C#N |  | 4.39 kMESF (inactive) |
| CC(Oc1cccc(Cl)c1)C(=O)Nc1nc(-c2ccccn2)cs1 (stereo unspecified) |  | 5.7 kMESF (inactive) |
| CC1=NNC(=O)/C1=C\c1cn(-c2ccccc2)nc1-c1cccs1 |  | 3.14 kMESF (inactive) |
| Cc1cc(C)c(OCC(=O)Nc2nc(-c3ccccn3)cs2)c(C)c1 |  | 2.37 kMESF (inactive) |
| COc1ccc(NC2=C(Cl)C(=O)N(CCc3ccccc3)C2=O)cc1 |  | 2.7 kMESF (inactive) |
| CC(=O)Oc1oc(-c2ccccc2)nc1C=Nc1ccccc1 |  | 3.71 kMESF (inactive) |
| CC(=O)c1ccc(N2CCN(C(=O)c3ccc(Br)cc3)CC2)c(F)c1 |  | 2.85 kMESF (inactive) |
| COC(=O)CCS(=O)(=O)c1nc(-c2ccccc2)cc(C(F)(F)F)n1 |  | 6.95 kMESF (inactive) |
| O=C(OCn1ncc(Br)c(Br)c1=O)c1c(F)cccc1F |  | 4.49 kMESF (inactive) |
| O=C(Oc1ccnc2cc(Cl)ccc12)N1CCOCC1 |  | 2.97 kMESF (inactive) |
| CC(=O)Nc1ncnc2c1c(-c1ccc(Cl)cc1)nn2C(C)(C)C |  | 2.08 kMESF (inactive) |
| CC(Oc1ccc(Cl)cc1)C(=O)NNC(=S)NC(=O)c1ccco1 (stereo unspecified) |  | 5.05 kMESF (inactive) |

| SMILES | EC50 [1] | GFP fluorescence (kMESF), higher = increase [2] |
| --- | --- | --- |
| Cc1cccc(N=Nc2ccc(O)c3ncccc23)c1 |  | 3.18 kMESF (inactive) |
| COc1ccc2c(c1)S/C(=C\C(=O)c1ccncc1)N2C |  | 2.67 kMESF (inactive) |
| O=C(Oc1oc(-c2ccco2)nc1C=Nc1ccccc1)c1ccco1 |  | 4.57 kMESF (inactive) |
| O=C(Nc1nnc(-c2ccc(F)cc2)o1)c1cccc([N+](=O)[O-])c1 |  | 2.99 kMESF (inactive) |
| Cc1c(NC2=C(Cl)C(=O)N(c3ccccc3)C2=O)c(=O)n(-c2ccccc2)n1C |  | 2.91 kMESF (inactive) |
| Cc1ccccc1[C@]1(C)ON(c2ccccc2C(F)(F)F)C1=O |  | 2.17 kMESF (inactive) |
| COc1ccccc1NC1=C(Cl)C(=O)N(c2ccccc2)C1=O |  | 2.07 kMESF (inactive) |
| COc1cc(SSc2cc(OC)cc([N+](=O)[O-])c2N)c(N)c([N+](=O)[O-])c1 |  | 5.29 kMESF (inactive) |
| COc1ccccc1OCCCc1c(C)n[nH]c1C |  | 3.47 kMESF (inactive) |
| O=C(/C=C/c1cccc([N+](=O)[O-])c1)c1ccc([N+](=O)[O-])o1 |  | 3.51 kMESF (inactive) |
| COc1cccc(N=Cc2nc(-c3ccccc3)oc2OC(C)=O)c1 |  | 3.64 kMESF (inactive) |
| Cc1ccc(C(=O)O/N=C(\N)Cc2cccs2)c(Cl)c1 |  | 4.31 kMESF (inactive) |
| O=C1Oc2ccccc2C(=O)/C1=C/c1ccccc1O |  | 5.39 kMESF (inactive) |
| O=C1C=CC(=O)N1c1ccc(O)cc1 |  | 6.77 kMESF (inactive) |
| O=S(=O)(CCN(CCS(=O)(=O)C(F)(F)F)CC1CCCO1)C(F)(F)F (stereo unspecified) |  | 4.69 kMESF (inactive) |
| Cc1c(Br)c(=O)oc2c(Br)c(O)c(O)cc12 |  | 2.07 kMESF (inactive) |
| CCC(C)/C(C)=N/NC(=O)c1ccc(COc2ccc(Cl)c(C)c2)cc1 (stereo unspecified) |  | 2.48 kMESF (inactive) |
| Cc1c(C(=O)Nc2nc(-c3ccccn3)cs2)oc2ccccc12 |  | 4.49 kMESF (inactive) |
| O=C(O)c1ccn2c(C(=O)c3ccccc3)c(-c3ccccc3)cc2c1 |  | 3.13 kMESF (inactive) |
| O=C(c1ccc(Cl)c([N+](=O)[O-])c1)N1CCN(c2ccccc2)CC1 |  | 2.46 kMESF (inactive) |
| Cc1ccc(C(=O)Oc2oc(-c3ccccc3)nc2C=Nc2ccc(N(C)C)cc2)cc1 |  | 4.19 kMESF (inactive) |

| SMILES | EC50 [1] | GFP fluorescence (kMESF), higher = increase [2] |
| --- | --- | --- |
| Oc1ccc(Br)cc1/C=N/Nc1ccccn1 |  | 3.94 kMESF (inactive) |
| CCC(=O)Oc1oc(-c2ccccc2)nc1C=Nc1ccc(C)cc1 |  | 3.2 kMESF (inactive) |
| CC1=C/C(=N\OS(=O)(=O)c2ccccc2)C(C(C)C)=CC1=O |  | 8.38 kMESF (inactive) |
| N/C(=N\OC(=O)c1cc(Br)ccc1Cl)c1ccccn1 |  | 5.31 kMESF (inactive) |
| Cc1nc2ccc(NC(=O)c3oc4ccc(F)cc4c3C)cc2s1 |  | 2.07 kMESF (inactive) |
| O=C1C=CC(=O)N1c1ccc(OC(F)F)cc1 |  | 3.81 kMESF (inactive) |
| Cc1ccc(C(CC(=O)O)NC(=O)c2ccc(S(=O)(=O)N3CC(C)OC(C)C3)cc2)cc1 (stereo unspecified) |  | 3.08 kMESF (inactive) |
| COC(CNC(=O)c1ccc2c3c(onc13)-c1ccccc1C2=O)OC |  | -0.77 kMESF (inactive) |
| COc1ccccc1N1C(=O)c2cccc3c(C(=O)O)ccc(c23)C1=O |  | 3.03 kMESF (inactive) |
| COc1cccc2c(=O)c(C(=O)NCc3cccs3)c[nH]c12 |  | 1.57 kMESF (inactive) |
| O=C(Nc1ccc(NC(=O)c2cc3ccccc3o2)cc1)c1ccc2c(c1)OCCO2 |  | 2.4 kMESF (inactive) |
| N#Cc1ccc(N=c2ssnc2Cl)cc1 |  | 3.37 kMESF (inactive) |
| CCN(CC)c1ccc(/C=C2\C(=O)c3ccc(C(=O)O)cc3C2=O)cc1 |  | 47.5 kMESF (inactive) |
| COc1ccc(N/N=C(\C#N)C(N)=O)cc1 |  | 1.24 kMESF (inactive) |
| O=C(O)c1cccc(S(=O)(=O)Nc2ccc(S(=O)(=O)N3CCOCC3)cc2)c1 |  | 2.77 kMESF (inactive) |
| O=C(Nc1nnc(-c2ccc(F)cc2)o1)c1cc(Cl)sc1Cl |  | 3.38 kMESF (inactive) |
| O=C1c2cccc3c([N+](=O)[O-])ccc(c23)C(=O)N1O |  | 22.1 kMESF (inactive) |
| O=C1C=CC(=O)N1N(c1ccccc1)c1ccccc1 |  | 4.7 kMESF (inactive) |
